Literature values in PMC8838197, “Coumarin-Resveratrol-Inspired Hybrids as Monoamine Oxidase B Inhibitors: 3-Phenylcoumarin versus trans-6-Styrylcoumarin” (Molecules, 2022).

Test system: MAO-B
Design: pIC50 MAO-B: unit not given here
Conditions: cited from earlier work; for pIC50 MAO-B: Table S8

| SMILES | pIC50 MAO-B | MAO-B pIC50 (data set compounds) | activity against MAO-B isoform (data set compounds) |
| --- | --- | --- | --- |
| COc1ccc(-c2cc3cc(C)ccc3oc2=O)cc1Br [Compound 21] | 8.488 | – | – |
| CC(=O)COc1ccc2oc(=O)c(-c3ccc(C)cc3)cc2c1 [Compound 15] | 5.258 | – | – |
| COc1ccc2oc(=O)c(-c3ccc(Br)cc3)cc2c1 [Compound 66, 3-(4′-bromophenyl)-6-mehtoxycoumarin] | 9.495 | > 6.5 | – |
| Cc1ccc2oc(=O)c(C(=O)Nc3cccc(O)c3)cc2c1 [Compound 113] | 7.343 | – | – |
| COc1ccc2occ(C(=O)Nc3cccc(Cl)c3)c(=O)c2c1 [Compound 131] | 8.405 | – | – |
| COc1ccc(-c2cc3c(ccc4ccccc43)oc2=O)cc1 [Compound 75] | 7.237 | – | – |
| Cc1ccc2oc(=O)c(C(=O)Nc3ccccc3C)cc2c1 [Compound 98] | 7.928 | – | – |
| COc1ccc(C(=O)Nc2cc3ccccc3oc2=O)cc1OC [Compound 46] | 4.234 | – | – |
| O=C(Nc1cc2ccccc2oc1=O)C1CCCCC1 [Compound 49] | 4.301 | – | – |
| COc1ccc2occ(C(=O)Nc3ccc(O)cc3)c(=O)c2c1 [Compound 135] | 6.171 | < 6.5 | – |
| COc1cccc(NC(=O)c2cc3cc(C)ccc3oc2=O)c1 [Compound 102] | 7.996 | – | – |
| C#CCNc1cc2ccccc2oc1=O [Compound 148] | 6.022 | – | – |
| Cc1ccc(-c2cc3cc(OC4CCCC4)ccc3oc2=O)cc1 [Compound 16] | 4.84 | – | – |
| COc1cc(-c2cc3cc(C)ccc3oc2=O)cc(OC)c1OC [Compound 4] | 6.794 | – | – |
| COc1ccc(-c2c(O)c3cc(C)ccc3oc2=O)cc1Cl [Compound 29] | 4.37 | – | – |
| COc1ccc2oc(=O)c(C(=O)Nc3cccc(C)c3)cc2c1 [Compound 117] | 7.326 | – | – |
| Cc1ccc2oc(=O)c(C(=O)Nc3ccccc3)cc2c1 [Compound 110] | 7.815 | – | – |
| O=C(Nc1cc2ccccc2oc1=O)c1cccnc1 [Compound 96] | 4.676 | – | – |
| Cc1ccc2oc(=O)c(C(=O)Nc3cccc(Cl)c3)cc2c1 [Compound 112] | 8.295 | – | – |
| COc1ccc2occ(C(=O)Nc3ccc(C)cc3)c(=O)c2c1 [Compound 133] | 6.676 | – | – |
| Cc1ccc(NC(=O)c2coc3ccc(C)cc3c2=O)cc1 [Compound 126] | 6.819 | – | – |
| O=C(Nc1c(O)c2ccccc2oc1=O)c1ccc(Cl)c(Cl)c1 [Compound 93] | 4.721 | – | – |

| SMILES | pIC50 MAO-B | MAO-B pIC50 (data set compounds) | activity against MAO-B isoform (data set compounds) |
| --- | --- | --- | --- |
| Cc1ccc2oc(=O)c(C(=O)Nc3cccc(O)c3)cc2c1 [Compound 108] | 7.343 | – | – |
| COc1ccc2occ(C(=O)Nc3cccc(O)c3)c(=O)c2c1 [Compound 132] | 6.945 | – | – |
| COc1ccc(-c2cc3cc(OC)ccc3oc2=O)cc1 [Compound 52] | 7.143 | – | – |
| COc1ccc(-c2cc3cc(Br)ccc3oc2=O)cc1 [Compound 53] | 8.222 | – | – |
| COc1cc(OC)c(Br)c(-c2cc3cc(C)ccc3oc2=O)c1 [Compound 22] | 4.267 | – | – |
| COc1ccccc1-c1cc2cc(C)ccc2oc1=O [Compound 6] | 6.808 | > 6.5 | – |
| COc1ccc(-c2c(O)c3cc(C)ccc3oc2=O)cc1 [Compound 27] | 4.494 | – | – |
| Cc1ccc2oc(=O)c(C(=O)Nc3ccc(O)cc3)cc2c1 [Compound 115] | 6.206 | < 6.5 | – |
| COc1cc(OC)cc(-c2cc3cc(C)ccc3oc2=O)c1 [Compound 3] | 8.047 | – | – |
| Cc1ccc2oc(=O)c(C(=O)Nc3ccc(Br)cc3)cc2c1 [Compound 106] | 7.943 | > 6.5 | – |
| Cc1ccc2oc(=O)c(-c3ccc(O)c(O)c3)cc2c1 [Compound 136] | 5.328 | – | – |
| COc1ccc(-c2cc3cc(C)ccc3oc2=O)cc1 [Compound 2] | 7.884 | – | – |
| COc1ccc2occ(C(=O)Nc3ccc(Cl)cc3)c(=O)c2c1 [Compound 134] | 7.987 | > 6.5 | – |
| O=C(O)COc1ccc2oc(=O)c(-c3cccc(Br)c3)cc2c1 [Compound 74] | 8.62 | > 6.5 | – |
| O=c1oc2ccc3ccccc3c2cc1-c1ccccc1O [Compound 83] | 5.496 | – | – |
| Cc1ccc2occ(C(=O)Nc3ccc(O)cc3)c(=O)c2c1 [Compound 128] | 6.29 | < 6.5 | – |
| Cc1cccc(NC(=O)c2cc3cc(C)ccc3oc2=O)c1 [Compound 111] | 8.124 | – | – |
| Cc1ccc2occ(C(=O)Nc3cccc(O)c3)c(=O)c2c1 [Compound 125] | 7.107 | – | – |
| COc1cc(OC)cc(-c2cc3cccc(C)c3oc2=O)c1 [Compound 137] | 8.187 | > 6.5 | – |
| CCC#CCNc1ccc2c(C)cc(=O)oc2c1 [Compound 151] | 5.401 | – | – |
| Cc1ccc2occ(C(=O)Nc3ccc(Cl)cc3)c(=O)c2c1 [Compound 127] | 7.343 | > 6.5 | – |
| COc1ccc(C(=O)Nc2cc3ccccc3oc2=O)cc1 [Compound 44] | 4.516 | – | – |

| SMILES | pIC50 MAO-B | MAO-B pIC50 (data set compounds) | activity against MAO-B isoform (data set compounds) |
| --- | --- | --- | --- |
| COc1cccc(-c2cc3cc(C)ccc3oc2=O)c1 [Compound 5, 3-(3′-methoxyphenyl)-6-methylcoumarin] | 9.096 | – | picomolar range |
| COc1ccc2oc(=O)c(-c3ccccc3)cc2c1 [Compound 62] | 6.384 | – | – |
| Cc1cccc(-c2cc3c(ccc4ccccc43)oc2=O)c1 [Compound 80] | 5.62 | – | – |
| Cc1ccc2oc(=O)c(-c3ccc(Br)cc3)cc2c1 [Compound 64, 3-(4′-bromophenyl)-6-methylcoumarin] | 9.412 | > 6.5 | – |
| COc1cccc2cc(-c3ccc(Br)cc3)c(=O)oc12 [Compound 35] | 5.48 | – | – |
| COc1cc(-c2cc3cc(C)ccc3oc2=O)ccc1Br [Compound 20] | 9.131 | > 6.5 | – |
| COc1ccc(-c2c(O)c3ccccc3oc2=O)cc1 [Compound 26] | 4.157 | – | – |
| Cc1ccc(C(=O)Nc2cc3ccccc3oc2=O)cc1 [Compound 42] | 5.099 | – | – |
| Cc1ccc(C(=O)Nc2ccc3c(C)cc(=O)oc3c2)cc1 [Compound 160] | 6.046 | – | – |
| O=c1oc2ccc(OC3CCCC3)cc2cc1-c1ccc(Br)cc1 [Compound 70] | 5.154 | – | – |
| COc1ccc2oc(=O)c(-c3cccc(Br)c3)cc2c1 [Compound 67, 3-(3′-bromophenyl)-6-methoxycoumarin] | 9.187 | > 6.5 | – |
| COc1ccc2oc(=O)c(C(=O)Nc3cccc(O)c3)cc2c1 [Compound 119] | 6.641 | – | – |
| Cc1ccc2oc(=O)c(-c3ccccc3)cc2c1 [Compound 1] | 6.547 | – | – |
| Cc1ccc2oc(=O)c(-c3ccccc3[N+](=O)[O-])cc2c1 [Compound 86] | 5.258 | – | – |
| COc1ccccc1-c1cc2c(ccc3ccccc32)oc1=O [Compound 77] | 7.385 | – | – |
| COc1ccc2oc(=O)c(C(=O)Nc3cccc(Cl)c3)cc2c1 [Compound 118] | 8.044 | – | – |
| Cc1cc(=O)oc2cc(NC(=O)c3ccc(Cl)cc3)ccc12 [Compound 161] | 6.509 | – | – |
| Cc1ccc2oc(=O)c(C(=O)Nc3ccccc3O)cc2c1 [Compound 107] | 7.738 | – | – |
| Cc1ccc2occ(C(=O)Nc3cccc(Cl)c3)c(=O)c2c1 [Compound 124] | 8.377 | – | – |
| Cc1ccc(NC(=O)c2cc3cc(C)ccc3oc2=O)cc1 [Compound 100] | 7.857 | – | – |
| COc1cc(OC)cc(-c2cc3cc(C)cc(Br)c3oc2=O)c1 [Compound 10] | 8.148 | > 6.5 | – |
| COc1ccc2oc(=O)c(C(=O)Nc3ccc(C)cc3)cc2c1 [Compound 120] | 7.712 | – | – |

| SMILES | pIC50 MAO-B | MAO-B pIC50 (data set compounds) | activity against MAO-B isoform (data set compounds) |
| --- | --- | --- | --- |
| COc1cc(-c2cc3c(ccc4ccccc43)oc2=O)cc(OC)c1OC [Compound 79] | 5.851 | – | – |
| Cc1ccc2oc(=O)c(-c3ccc(N)cc3)cc2c1 [Compound 91] | 8.387 | > 6.5 | – |
| CCC#CCNc1cc2ccccc2oc1=O [Compound 150] | 5.963 | – | – |
| COc1cc(OC)c(-c2cc3cc(C)ccc3oc2=O)cc1Br [Compound 140] | 6.879 | > 6.5 | – |
| Cc1ccc2oc(=O)c(-c3cccc([N+](=O)[O-])c3)cc2c1 [Compound 87] | 8.222 | – | – |
| Cc1cccc2cc(-c3ccc(Br)cc3)c(=O)oc12 [Compound 39] | 7.701 | > 6.5 | – |
| COc1ccc2oc(=O)c(C(=O)Nc3ccccc3)cc2c1 [Compound 116] | 8.225 | – | – |
| COc1ccc(-c2cc3cc(C)cc(Br)c3oc2=O)cc1 [Compound 9] | 8.491 | – | – |
| Cc1ccc2oc(=O)c(C(=O)Nc3cccc(Br)c3)cc2c1 [Compound 105] | 8.332 | – | – |
| Cc1ccc2occ(C(=O)Nc3ccccc3)c(=O)c2c1 [Compound 122] | 7.671 | – | – |
| CCC#CCNc1ccc2c(C(F)(F)F)cc(=O)oc2c1 [Compound 152] | 5.094 | – | – |
| O=c1oc2ccc(O)cc2cc1-c1cccc(Br)c1 [Compound 69] | 8.097 | > 6.5 | – |
| COc1ccc(-c2cc3c(ccc4ccccc43)oc2=O)cc1OC [Compound 78] | 7.312 | > 6.5 | – |
| COc1ccccc1NC(=O)c1cc2cc(C)ccc2oc1=O [Compound 101] | 6.794 | – | – |
| O=C(Nc1c(O)c2ccccc2oc1=O)c1cccs1 [Compound 95] | 4.81 | – | – |
| COc1ccc2oc(=O)c(-c3ccc(C)cc3)cc2c1 [Compound 13] | 8.818 | – | – |
| CC(=O)COc1ccc2oc(=O)c(-c3cccc(Br)c3)cc2c1 [Compound 71] | 5.83 | – | – |
| Cc1ccc2oc(=O)c(-c3ccccc3N)cc2c1 [Compound 89] | – | 5.664 | – |
| O=c1oc2ccc3ccccc3c2cc1-c1cc(O)cc(O)c1 [Compound 85] | 4.503 | – | – |
| COc1ccc2oc(=O)c(-c3cccc(C)c3)cc2c1 [Compound 12] | 7.768 | > 6.5 | – |
| COc1ccc2occ(C(=O)Nc3cccc(C)c3)c(=O)c2c1 [Compound 130] | 7.662 | – | – |
